This note sets out measurements from US12441730B2, “PRMT5 inhibitors” (Merck Sharp & Dohme LLC, priority 2019, dated 2025).

The subject of assay [1] is symmetric dimethylation of arginine (SDMA) of PRMT5 substrates in MCF-7 cells. Put plainly: PRMT5 Cell Target Engagement (TE) Assay. Format: cell-based. The note with it: Homo sapiens, MCF7, 72 h, 3 days treatment, SDMA high content imaging. Summed up: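 Readout is single-cell nuclear symmetric-dimethylarginine immunofluorescence (Alexa488), normalized to DMSO-treated cells. Compounds were applied to MCF-7 cells for 3 days at 37 °C, top concentration 10000 nM in 1:3 steps over ten points; curves fitted with 4-parameter robust fit.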

The target in assay [2] is T1, Full-length (FL)-PRMT5-MEP50 enzyme complex (Homo sapiens, UniProt O14744).
T1 construct: Full-length (FL)-PRMT5-MEP50 enzyme complex (recombinant proteins from baculovirus-transfected Sf21 cells: FL-PRMT5; MW=73837 kDa and FL-MEP50; MW=38614); made in house; host or cells: baculovirus-transfected Sf21 cells
T1 sequence (O14744 whole entry): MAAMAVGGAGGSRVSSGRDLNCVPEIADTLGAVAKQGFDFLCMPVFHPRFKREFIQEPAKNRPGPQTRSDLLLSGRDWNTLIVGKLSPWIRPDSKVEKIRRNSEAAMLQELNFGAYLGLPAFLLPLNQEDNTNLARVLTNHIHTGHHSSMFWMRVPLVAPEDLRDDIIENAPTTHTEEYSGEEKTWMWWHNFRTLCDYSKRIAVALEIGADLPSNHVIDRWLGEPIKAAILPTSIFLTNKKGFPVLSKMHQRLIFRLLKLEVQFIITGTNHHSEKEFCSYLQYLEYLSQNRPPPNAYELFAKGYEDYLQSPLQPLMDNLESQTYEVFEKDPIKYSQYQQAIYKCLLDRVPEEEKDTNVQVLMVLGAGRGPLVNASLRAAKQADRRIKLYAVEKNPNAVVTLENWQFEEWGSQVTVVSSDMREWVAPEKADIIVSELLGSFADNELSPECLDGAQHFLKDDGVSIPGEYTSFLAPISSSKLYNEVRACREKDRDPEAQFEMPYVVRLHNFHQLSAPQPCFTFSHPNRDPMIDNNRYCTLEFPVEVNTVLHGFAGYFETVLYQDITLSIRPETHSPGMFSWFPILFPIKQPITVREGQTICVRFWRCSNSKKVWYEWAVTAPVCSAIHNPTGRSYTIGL
T1 sequence (Q9BQA1 whole entry partner): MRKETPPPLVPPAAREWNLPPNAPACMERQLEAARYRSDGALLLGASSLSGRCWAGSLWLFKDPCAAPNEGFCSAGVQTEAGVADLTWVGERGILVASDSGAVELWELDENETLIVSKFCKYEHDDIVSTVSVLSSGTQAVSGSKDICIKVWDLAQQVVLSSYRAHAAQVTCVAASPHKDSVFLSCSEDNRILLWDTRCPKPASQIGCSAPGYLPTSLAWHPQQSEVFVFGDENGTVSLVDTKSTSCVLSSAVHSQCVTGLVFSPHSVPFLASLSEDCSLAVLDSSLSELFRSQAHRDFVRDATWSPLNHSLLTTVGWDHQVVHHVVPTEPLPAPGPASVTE
Put plainly: PRMT5-MEP50 Enzyme Methylation Assay (Version A). Format: biochemical. In a few lines: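 Compound was pre-incubated with enzyme for 60 min, then reacted 150 min at 37° C. at final 1.0 nM PRMT5-MEP50, 15 μM SAM and 75 nM biotinylated H4R3(Me1) peptide, in 50 mM Bicine pH 8.0 with 1% DMSO. SAMDI mass-spectrometric readout of Me1→Me2 conversion. EC50 from 4- or 7-parameter regression.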

[3] abbreviates: second value of 7 parameter biphasic fit, read-out: Enzyme Methylation Assay Version A (EC50 2).
Where [4] appears, read: single EC50 = 4 parameter single site sigmoidal fit, EC50 1 = first value of 7 parameter biphasic fit, read-out: Enzyme Methylation Assay Version A (EC50 or EC50 1).

Molecules are shown by their SMILES. Read-outs that look alike come from different tables or passages of the source. A value given as a limit tells only on which side of the number the result lay.

For `COC(C)c1cc(C(C)C)cn2cc(C(=O)N3CC[C@]4(Cc5ccccc5CN4)[C@H](O)C3)nc12` (stereo partly drawn) [Example 84, A diastereomer of [(3R,3′R)-3′-hydroxy-1,4-dihydro-1′H,2H-spiro[isoquinoline-3,4′-piperidin]-1′-yl][6-isopropyl-8-(1-methoxyethyl)imidazo[1,2-a]pyridin-2-yl]methanone], the EC50 – broadly, the midpoint of the concentration-response curve – in assay [1] amounted to 10.9 nM; in assay [2] (setting [3]), 292 nM; in assay [2] (setting [4]), 0.464 nM.

For `Cc1ccn2cc(C(=O)N3CC[C@]4(Cc5ccccc5CN4)[C@H](O)C3)nc2n1` [Example 111, [(3R,3′R)-3′-hydroxy-1,4-dihydro-1′H,2H-spiro[isoquinoline-3,4′-piperidin]-1′-yl](7-methylimidazo[1,2-a]pyrimidin-2-yl)methanone], the concentration for a half-maximal effect (EC50) in assay [1] came out at 2710 nM; in assay [2] (setting [3]) it was 35900 nM; in assay [2] (setting [4]), 41.2 nM.

As to `COCc1cc(Cl)cn2cc(C(=O)N3CC[C@]4(Cc5ccccc5CN4)[C@H](O)C3)nc12` [Example 112, (6-chloro-8-(methoxymethyl)imidazo[1,2-a]pyridin-2-yl)((3R,3′R)-3′-hydroxy-1,4-dihydro-2H-spiro[isoquinoline-3,4′-piperidin]-1′-yl)methanone], the concentration giving a half-maximal response (EC50) in assay [1] turned out to be 6.75 nM; in assay [2] (setting [3]), 271 nM; in assay [2] (setting [4]), 0.703 nM.

In the case of `COCc1cc(C)cn2cc(C(=O)N3CC[C@]4(Cc5ccccc5CN4)[C@H](O)C3)nc12` [Example 113, ((3R,3′R)-3′-hydroxy-1,4-dihydro-2H-spiro[isoquinoline-3,4′-piperidin]-1′-yl)(8-(methoxymethyl)-6-methylimidazo[1,2-a]pyridin-2-yl)methanone], the values for the EC50 in assay [1], in assay [2] (setting [3]) and in assay [2] (setting [4]) were 17.2 nM, 339 nM and 0.682 nM, respectively.

Take `Cc1c(Br)cnc2nc(C(=O)N3CC[C@]4(Cc5ccccc5CN4)[C@H](O)C3)cn12` [Example 119, (6-bromo-5-methylimidazo[1,2-a]pyrimidin-2-yl)[(3R,3′R)-3′-hydroxy-1,4-dihydro-1′H,2H-spiro[isoquinoline-3,4′-piperidin]-1′-yl]methanone]: the 50% effective concentration (EC50) in assay [1] was determined as 274 nM; in assay [2] (setting [3]), 6460 nM; in assay [2] (setting [4]), 11.8 nM.

On to `Cc1cnc2nc(C(=O)N3CC[C@]4(Cc5ccccc5CN4)[C@H](O)C3)cn2c1` [Example 120, [(3R,3′R)-3′-hydroxy-1,4-dihydro-1′H,2H-spiro[isoquinoline-3,4′-piperidin]-1′-yl](6-methylimidazo[1,2-a]pyrimidin-2-yl)methanone], for which the EC50 in assay [1] came out at 28.8 nM; in assay [2] (setting [3]) it was 351 nM; in assay [2] (setting [4]) it was 0.499 nM.

As for `O=C(c1cn2cc(Br)c(C(F)(F)F)nc2n1)N1CC[C@]2(Cc3ccccc3CN2)[C@H](O)C1` [Example 121, [6-bromo-7-(trifluoromethyl)imidazo[1,2-a]pyrimidin-2-yl][(3R,3′R)-3′-hydroxy-1,4-dihydro-1′H,2H-spiro[isoquinoline-3,4′-piperidin]-1′-yl]methanone], the EC50 in assay [1] worked out at 65.5 nM; in assay [2] (setting [3]), 3310 nM; in assay [2] (setting [4]), 4.88 nM.

For `Cc1ccnc2nc(C(=O)N3CC[C@]4(Cc5ccccc5CN4)[C@H](O)C3)cn12` [Example 124, [(3R,3′R)-3′-hydroxy-1,4-dihydro-1′H,2H-spiro[isoquinoline-3,4′-piperidin]-1′-yl](5-methylimidazo[1,2-a]pyrimidin-2-yl)methanone], the figures for the EC50 in assay [1], in assay [2] (setting [3]) and in assay [2] (setting [4]) were 3320 nM, 2420 nM and 8.49 nM, respectively.

As to `COc1cc2nc(C(=O)N3CC[C@]4(Cc5ccccc5CN4)[C@H](O)C3)cn2cc1Br` [Example 125], the EC50 stood at 13.8 nM in assay [1], 298 nM in assay [2] (setting [3]) and 0.515 nM in assay [2] (setting [4]).

Regarding `Cc1cn2cc(C(=O)N3CC[C@]4(Cc5ccccc5CN4)[C@H](O)C3)nc2nc1C` [Example 126, (6,7-dimethylimidazo[1,2-a]pyrimidin-2-yl)[(3R,3′R)-3′-hydroxy-1,4-dihydro-1′H,2H-spiro[isoquinoline-3,4′-piperidin]-1′-yl]methanone], the EC50 in assay [1] turned out to be 399 nM; in assay [2] (setting [3]) it was 5010 nM; in assay [2] (setting [4]), 7.15 nM.

For the compound `Cc1cnc2nc(C(=O)N3CC[C@]4(Cc5ccccc5CN4)[C@H](O)C3)cn2c1C` [Example 127, (5,6-dimethylimidazo[1,2-a]pyrimidin-2-yl)[(3R,3′R)-3′^-hydroxy-1,4-dihydro-1′H,2H-spiro[isoquinoline-3,4′-piperidin]-1′-yl]methanone], the 50% effective concentration (EC50) in assay [1] was found to be 3950 nM; in assay [2] (setting [3]) it was 34300 nM; in assay [2] (setting [4]), 61.7 nM.

Take `COc1nc2nc(C(=O)N3CC[C@]4(Cc5ccccc5CN4)[C@H](O)C3)cn2cc1C` [Example 128, [(3R,3′R)-3′-hydroxy-1,4-dihydro-1′H,2H-spiro[isoquinoline-3,4′-piperidin]-1′-yl](7-methoxy-6-methylimidazo[1,2-a]pyrimidin-2-yl)methanone]: the results for the EC50 in assay [1], in assay [2] (setting [3]) and in assay [2] (setting [4]) were 195 nM, 2690 nM and 5.33 nM, respectively.

As to `O=C(c1cn2cc(O)cnc2n1)N1CC[C@]2(Cc3ccccc3CN2)[C@H](O)C1` [Example 129, [(3R,3′R)-3′-hydroxy-1,4-dihydro-1′H,2H-spiro[isoquinoline-3,4′-piperidin]-1′-yl](6-hydroxyimidazo[1,2-a]pyrimidin-2-yl)methanone], the 50% effective concentration (EC50) in assay [1] was no less than 10000 nM; in assay [2] (setting [4]) it was 836 nM.

For `O=C(c1cn2cc(Br)c(O)cc2n1)N1CC[C@]2(Cc3ccccc3CN2)[C@H](O)C1` [Example 130, (6-bromo-7-hydroxy imidazo[1,2-a]pyridin-2-yl)[(3R,3′R)-3′-hydroxy-1,4-dihydro-1′H,2H-spiro[isoquinoline-3,4′-piperidin]-1′-yl]methanone], the EC50 stood at 9600 nM in assay [1], 19700 nM in assay [2] (setting [3]) and 21.4 nM in assay [2] (setting [4]).

Consider `Cc1cn2cc(C(=O)N3CC[C@]4(Cc5ccccc5CN4)[C@H](O)C3)nc2nc1O` [Example 131, 2-{[(3R,3′R)-3′-hydroxy-1,4-dihydro-1′H,2H-spiro[isoquinoline-3,4′-piperidin]-1′-yl]carbonyl}-6-methylimidazo[1,2-a]pyrimidin-7(1H)-one], for which the EC50 in assay [1] is no less than 10000 nM; in assay [2] (setting [3]) it was 74100 nM; in assay [2] (setting [4]), 70.8 nM.

Consider `COC(C)c1cc(C2CC2)cn2cc(C(=O)N3CC[C@]4(Cc5ccccc5CN4)[C@H](O)C3)nc12` (stereo partly drawn) [Example 132, [6-cyclopropyl-8-(1-methoxyethyl)imidazo[1,2-a]pyridin-2-yl][(3R,3′R)-3′-hydroxy-1,4-dihydro-1′H,2H-spiro[isoquinoline-3,4′-piperidin]-1′-yl]methanone], for which the EC50 in assay [1] was determined as 6.61 nM; in assay [2] (setting [3]) it was 123 nM; in assay [2] (setting [4]) it was 0.244 nM.

With `CC(C#N)c1cnc2nc(C(=O)N3CC[C@]4(Cc5ccccc5CN4)[C@H](O)C3)cn2c1` (stereo partly drawn) [Example 133, 2-(2-{[(3R,3′R)-3′-hydroxy-1,4-dihydro-1′H,2H-spiro[isoquinoline-3,4′-piperidin]-1′-yl]carbonyl}imidazo[1,2-a]pyrimidin-6-yl)propanenitrile], the concentration giving a half-maximal response (EC50) came out at 77.4 nM in assay [1], 16.2 nM in assay [2] (setting [3]) and 3.79 nM in assay [2] (setting [4]).

For the compound `O=C(c1cn2cc(C3CC3)ncc2n1)N1CC[C@]2(Cc3ccccc3CN2)[C@H](O)C1` [Example 134, (6-cyclopropylimidazo[1,2-a]pyrazin-2-yl)[(3R,3′R)-3′-hydroxy-1,4-dihydro-1′H,2H-spiro[isoquinoline-3,4′-piperidin]-1′-yl]methanone], the EC50 in assay [1] came to 184 nM; in assay [2] (setting [4]) it was 143 nM.

Consider `O=C(c1cn2cc(Br)c(C3CC3)nc2n1)N1CC[C@]2(Cc3ccccc3CN2)[C@H](O)C1` [Example 135, (6-bromo-7-cyclopropylimidazo[1,2-a]pyrimidin-2-yl)[(3R,3′R)-3′-hydroxy-1,4-dihydro-1′H,2H-spiro[isoquinoline-3,4′-piperidin]-1′-yl]methanone], for which the figures for the 50% effective concentration (EC50) in assay [1] and in assay [2] (setting [4]) were 6.86 nM and 10.6 nM, respectively.

`Cc1cn2cc(C(=O)N3CC[C@]4(Cc5ccccc5CN4)[C@H](O)C3)nc2c(Br)n1` [Example 138, (8-bromo-6-methylimidazo[1,2-a]pyrazin-2-yl)[(3R,3′R)-3′-hydroxy-1,4-dihydro-1′H,2H-spiro[isoquinoline-3,4′-piperidin]-1′-yl]methanone]: the EC50 in assay [1] worked out at 322 nM; in assay [2] (setting [4]) it was 202 nM.

Regarding `Cc1nc2ncc(C(=O)N3CC[C@]4(Cc5ccccc5CN4)[C@H](O)C3)n2cc1Br` [Example 140, (6-bromo-7-methylimidazo[1,2-a]pyrimidin-3-yl)[(3R,3′R)-3′-hydroxy-1,4-dihydro-1′H,2H-spiro[isoquinoline-3,4′-piperidin]-1′-yl]methanone], the half-maximal effective concentration (EC50) came to 2090 nM in assay [1] and 1390 nM in assay [2] (setting [4]).

In the case of `Cc1c(Br)cnc2ncc(C(=O)N3CC[C@]4(Cc5ccccc5CN4)[C@H](O)C3)n12` [Example 141, (6-bromo-5-methylimidazo[1,2-a]pyrimidin-3-yl)[(3R,3′R)-3′-hydroxy-1,4-dihydro-1′H,2H-spiro[isoquinoline-3,4′-piperidin]-1′-yl]methanone], the concentration giving a half-maximal response (EC50) amounted to 4380 nM in assay [1], 3720 nM in assay [2] (setting [3]) and 101 nM in assay [2] (setting [4]).
